Test system: NOMO1
Assay: cell viability relative to DMSO control; higher = less cytotoxic
Settings: RPMI 5 mM glucose + 10% FBS, 48 h
Method in brief: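 Viability is a per-plate percentage relative to DMSO wells, with cell-free wells as background. CellTiter-Glo One luminescence was read after 48 h at 37°C on 1536-well plates (5 μl) of NOMO1 or SEM (500 cells/well) or P12-Ichikawa (1000 cells/well) leukemia cells. The cells had been adapted for at least four passages in each medium and pin-dosed with library compounds in DMSO from 47 μM to 0.79 nM in 11 threefold steps.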

Row | Compound | cell viability (0.000781 µM) | cell viability (0.00234 µM) | cell viability (0.00702 µM) | cell viability (0.0211 µM) | cell viability (0.0632 µM) | cell viability (0.19 µM) | cell viability (0.569 µM) | cell viability (1.71 µM) | cell viability (5.12 µM) | cell viability (15.4 µM) | cell viability (46.1 µM)
1 | O=[S+]([O-])(/N=C/c1c(O)ccc2ccccc12)c1cccs1 | 113% | 126% | 111% | 124% | 129% | 129% | 114% | 113% | 126% | 107% | 126%
2 | NC(=O)c1cnc(-c2ccc(C3(N)CCC3)cc2)c(-c2ccccc2)c1 | 119% | 117% | 126% | 117% | 136% | 122% | 128% | 132% | 127% | 131% | 76.9%

Reference: the supplement of paper PMC11451515
